Experimental data as given in PubChem BioAssay (NCI).
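Briefly, cells in 96-well plates were exposed to five compound concentrations for 48 h, and endpoints were estimated by linear interpolation. GI50 is the concentration that inhibits growth by half. TGI denotes the concentration required for complete inhibition of growth.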

Key:
Assay in all cases: growth of human tumour cells (NCI), 48 h
HL-60(TB) leukemia = system: HL-60(TB) leukemia
KM12 colon = system: KM12 colon
MOLT-4 leukemia = system: MOLT-4 leukemia
NCI-H23 lung = system: NCI-H23 lung
NCI-H522 lung = system: NCI-H522 lung
OVCAR-5 ovarian = system: OVCAR-5 ovarian
OVCAR-8 ovarian = system: OVCAR-8 ovarian
SF-268 CNS = system: SF-268 CNS
SF-539 CNS = system: SF-539 CNS
SK-MEL-2 melanoma = system: SK-MEL-2 melanoma
SK-OV-3 ovarian = system: SK-OV-3 ovarian
SW-620 colon = system: SW-620 colon
UACC-257 melanoma = system: UACC-257 melanoma

| Compound | TGI (HL-60(TB) leukemia) | TGI (KM12 colon) | TGI (MOLT-4 leukemia) | TGI (NCI-H23 lung) | TGI (NCI-H522 lung) | TGI (OVCAR-5 ovarian) | TGI (OVCAR-8 ovarian) | TGI (SF-268 CNS) | TGI (SF-539 CNS) | TGI (SK-MEL-2 melanoma) | TGI (SK-OV-3 ovarian) | TGI (SW-620 colon) | TGI (UACC-257 melanoma) | GI50 (HL-60(TB) leukemia) | GI50 (NCI-H23 lung) | GI50 (NCI-H522 lung) | GI50 (OVCAR-5 ovarian) | GI50 (SF-539 CNS) | GI50 (UACC-257 melanoma) |
| --- | --- | --- | --- | --- | --- | --- | --- | --- | --- | --- | --- | --- | --- | --- | --- | --- | --- | --- | --- |
| O=C(N/N=C/c1cc(Br)cc(Br)c1[O-])c1ccccc1O.O=C(N/N=C/c1cc(Br)cc(Br)c1[O-])c1ccccc1O.[Zn+2] | 0.547 µM | 15.9 µM | > 100 µM | 3.17 µM | 1.47 µM | 13.1 µM | 10.5 µM | 17.5 µM | 10.7 µM | 12 µM | 8.49 µM | 19.5 µM | 10.6 µM |  |  |  |  |  |  |
| COc1cc(C2(c3ncc[nH]3)SSSCC2O)ccc1O (centres undefined) | > 67.9 µM | > 100 µM | > 54.7 µM | > 100 µM | 90.6 µM | > 100 µM | > 100 µM | 23.8 µM | > 100 µM | > 100 µM | > 100 µM | > 100 µM | 28.5 µM |  |  |  |  |  |  |
| CCOC(=O)/C(=N/Nc1ccccc1)N1C(=S)C=C(C)NN(C)C1=S | > 100 µM | > 100 µM | > 100 µM | > 100 µM | > 100 µM | > 100 µM | > 100 µM | > 100 µM | > 100 µM | > 100 µM | > 100 µM | > 100 µM | > 100 µM |  |  |  |  |  |  |
| CC(C)C1NC(=O)CC(c2ccccc2)N(N=O)C1c1ccccc1 (centres undefined) | > 100 µM | > 100 µM | > 100 µM | > 100 µM | > 100 µM | > 100 µM | > 100 µM | > 100 µM | > 100 µM | > 100 µM | > 100 µM | > 100 µM | > 100 µM |  |  |  |  |  |  |
| Cc1c(N=C/C=C/c2ccccc2)c(=O)n(-c2ccccc2)n1C | 48.2 µM | 77.2 µM | 83.8 µM | 69.8 µM | > 100 µM | > 100 µM | 54.4 µM | > 100 µM | 64.4 µM | > 100 µM | > 100 µM | 58.4 µM | > 100 µM |  |  |  |  |  |  |
| C/C(=N\NC(=O)c1ccccc1O)c1cccc(/C(C)=N/NC(=O)c2ccccc2O)n1.O=S(=O)([O-])[O-].[Fe+2] | 0.341 µM | > 100 µM | > 100 µM | > 100 µM | > 100 µM | > 100 µM | > 100 µM | > 100 µM | > 100 µM | > 100 µM | > 100 µM | > 100 µM | > 100 µM | 0.156 µM | > 100 µM | > 100 µM | > 100 µM | > 100 µM | > 100 µM |
